As a reminder, the IC50 is the point on the concentration scale where inhibition reaches its midpoint.

The test deals with T1, hMAGL (Homo sapiens, UniProt Q99685).
T1 sequence (Q99685 1-303): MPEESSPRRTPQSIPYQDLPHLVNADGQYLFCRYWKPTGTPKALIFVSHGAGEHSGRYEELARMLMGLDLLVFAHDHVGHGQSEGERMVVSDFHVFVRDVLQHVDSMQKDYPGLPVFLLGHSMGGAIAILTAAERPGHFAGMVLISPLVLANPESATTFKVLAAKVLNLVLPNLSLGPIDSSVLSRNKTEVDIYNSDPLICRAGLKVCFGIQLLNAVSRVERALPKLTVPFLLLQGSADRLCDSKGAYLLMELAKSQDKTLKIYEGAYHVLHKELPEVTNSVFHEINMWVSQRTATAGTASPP
Briefly: 2-AG assay: MAGL inhibition, hydrolysis of 2-arachidonoylglycerol to arachidonic acid followed by mass spectrometry. The test is classed as biochemical. Summed up:
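Read-out is LC-MS/MS of arachidonic acid released from 2-arachidonoylglycerol (8 μM final), normalised to d8-arachidonic acid internal standard after acetonitrile quench. Enzyme […] and compound were pre-mixed 15 min, then reacted 30 min, both at RT, in Tris/EDTA buffer with 0.01% Tween-20 and 2.5% DMSO.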
`O=C(N1CC2(CC(n3cnc(C4(O)CC4)n3)C2)C1)N1CC2(CN(Cc3snnc3C3CCC3)C2)C1` [Example 78, [6-[(4-cyclobutylthiadiazol-5-yl)methyl]-2,6-diazaspiro[3.3]heptan-2-yl]-[6-[3-(1-hydroxycyclopropyl)-1,2,4-triazol-1-yl]-2-azaspiro[3.3]heptan-2-yl]methanone] showed an IC50 of 22.9 nM.
As for `O=C(N1CC2(CCN(Cc3cc(C(F)(F)F)on3)CC2)C1)N1CC2(CC(n3cnc(C(F)(F)F)n3)C2)C1` [Example 79, [7-[[5-(trifluoromethyl)isoxazol-3-yl]methyl]-2,7-diazaspiro[3.5]nonan-2-yl]-[6-[3-(trifluoromethyl)-1,2,4-triazol-1-yl]-2-azaspiro[3.3]heptan-2-yl]methanone], the figure is 71.4 nM; as for `O=C(N1CC2(CCN(Cc3cc(C(F)(F)F)on3)CC2)C1)N1CC2(CC(n3cnc(C4CC4)n3)C2)C1` [Example 80, [6-(3-cyclopropyl-1,2,4-triazol-1-yl)-2-azaspiro[3.3]heptan-2-yl]-[7-[[5-(trifluoromethyl)isoxazol-3-yl]methyl]-2,7-diazaspiro[3.5]nonan-2-yl]methanone], 8.61 nM.
In turn, `O=C(N1CC2(CCN(Cc3cc(C(F)(F)F)on3)CC2)C1)N1CC2(CC(n3cnc(C4(O)CC4)n3)C2)C1` [Example 81, [6-[3-(1-hydroxycyclopropyl)-1,2,4-triazol-1-yl]-2-azaspiro[3.3]heptan-2-yl]-[7-[[5-(trifluoromethyl)isoxazol-3-yl]methyl]-2,7-diazaspiro[3.5]nonan-2-yl]methanone] showed a concentration for half-maximal inhibition (IC50) of 251 nM.
As for `O=C(N1CC2(CC(n3cnc(C(F)(F)F)n3)C2)C1)N1CC2(CN(Cc3nnc(C(F)(F)F)s3)C2)C1` [Example 82, [6-[[5-(trifluoromethyl)-1,3,4-thiadiazol-2-yl]methyl]-2,6-diazaspiro[3.3]heptan-2-yl]-[6-[3-(trifluoromethyl)-1,2,4-triazol-1-yl]-2-azaspiro[3.3]heptan-2-yl]methanone], the figure is 145 nM.
Molecule `O=C(N1CC2(CC(n3cnc(C4CC4)n3)C2)C1)N1CC2(CN(Cc3nnc(C(F)(F)F)s3)C2)C1` [Example 83, [6-(3-cyclopropyl-1,2,4-triazol-1-yl)-2-azaspiro[3.3]heptan-2-yl]-[6-[[5-(trifluoromethyl)-1,3,4-thiadiazol-2-yl]methyl]-2,6-diazaspiro[3.3]heptan-2-yl]methanone] showed a 50% inhibitory concentration (IC50) of 66.8 nM.
Consider `O=C(N1CC2(CC(n3cnc(C4(O)CC4)n3)C2)C1)N1CC2(CN(Cc3nnc(C(F)(F)F)s3)C2)C1` [Example 84, [6-[3-(1-hydroxycyclopropyl)-1,2,4-triazol-1-yl]-2-azaspiro[3.3]heptan-2-yl]-[6-[[5-(trifluoromethyl)-1,3,4-thiadiazol-2-yl]methyl]-2,6-diazaspiro[3.3]heptan-2-yl]methanone], for which half-maximal inhibition (IC50) was put at 2090 nM.
As to `Cc1nc(C(F)(F)F)c(CN2CC3(C2)CN(C(=O)N2CC4(CC(n5cnc(C(F)(F)F)n5)C4)C2)C3)s1` [Example 85], the concentration for half-maximal inhibition (IC50) was found to be 37.1 nM.
As for `Cc1nc(C(F)(F)F)c(CN2CC3(C2)CN(C(=O)N2CC4(CC(n5cnc(C6CC6)n5)C4)C2)C3)s1` [Example 86, [6-(3-cyclopropyl-1,2,4-triazol-1-yl)-2-azaspiro[3.3]heptan-2-yl]-[6-[[2-methyl-4-(trifluoromethyl)thiazol-5-yl]methyl]-2,6-diazaspiro[3.3]heptan-2-yl]methanone], the figure is 2.65 nM; as for `Cc1nc(C(F)(F)F)c(CN2CC3(C2)CN(C(=O)N2CC4(CC(n5cnc(C6(O)CC6)n5)C4)C2)C3)s1` [Example 87, [6-[3-(1-hydroxycyclopropyl)-1,2,4-triazol-1-yl]-2-azaspiro[3.3]heptan-2-yl]-[6-[[2-methyl-4-(trifluoromethyl)thiazol-5-yl]methyl]-2,6-diazaspiro[3.3]heptan-2-yl]methanone], 351 nM; as for `Cn1cc(OC2CC3(C2)CN(C(=O)N2CC4(CC(n5cnc(C6(O)CC6)n5)C4)C2)C3)cn1` [Example 88, [6-[3-(1-hydroxycyclopropyl)-1,2,4-triazol-1-yl]-2-azaspiro[3.3]heptan-2-yl]-[6-(1-methylpyrazol-4-yl)oxy-2-azaspiro[3.3]heptan-2-yl]methanone], 1370 nM.
`O=C(N1CC2(CC(n3cnc(C(F)(F)F)n3)C2)C1)N1CC2(CN(Cc3snnc3C3CC3)C2)C1` [Example 89, [6-[(4-cyclopropylthiadiazol-5-yl)methyl]-2,6-diazaspiro[3.3]heptan-2-yl]-[6-[3-(trifluoromethyl)-1,2,4-triazol-1-yl]-2-azaspiro[3.3]heptan-2-yl]methanone]: 312 nM corresponded to half-maximal inhibition (IC50).
The molecule `O=C(N1CC2(CC(n3cnc(C4CC4)n3)C2)C1)N1CC2(CN(Cc3snnc3C3CC3)C2)C1` [Example 90, [6-[(4-cyclopropylthiadiazol-5-yl)methyl]-2,6-diazaspiro[3.3]heptan-2-yl]-[6-(3-cyclopropyl-1,2,4-triazol-1-yl)-2-azaspiro[3.3]heptan-2-yl]methanone] yielded a half-maximal inhibitory concentration (IC50) of 223 nM.
As for `Cc1cc(C(F)F)n(CC2CC3(C2)CN(C(=O)N2CC4(CC(n5cnc(C(F)(F)F)n5)C4)C2)C3)n1` [Example 91, [6-[[5-(difluoromethyl)-3-methyl-pyrazol-1-yl]methyl]-2-azaspiro[3.3]heptan-2-yl]-[6-[3-(trifluoromethyl)-1,2,4-triazol-1-yl]-2-azaspiro[3.3]heptan-2-yl]methanone], the figure is 1.02 nM; as for `Cc1cc(C(F)F)n(CC2CC3(C2)CN(C(=O)N2CC4(CC(n5cnc(C6CC6)n5)C4)C2)C3)n1` [Example 92], 0.21 nM; as for `Cc1cc(C(F)F)n(CC2CC3(C2)CN(C(=O)N2CC4(CC(n5cnc(C6(O)CC6)n5)C4)C2)C3)n1` [Example 93, [6-[[5-(difluoromethyl)-3-methyl-pyrazol-1-yl]methyl]-2-azaspiro[3.3]heptan-2-yl]-[6-[3-(1-hydroxycyclopropyl)-1,2,4-triazol-1-yl]-2-azaspiro[3.3]heptan-2-yl]methanone], 5.48 nM.
`Cc1cc(C(F)F)nn1CC1CC2(C1)CN(C(=O)N1CC3(CC(n4cnc(C(F)(F)F)n4)C3)C1)C2` [Example 94] yielded an IC50 of 0.4 nM.
In turn, `Cc1cc(C(F)F)nn1CC1CC2(C1)CN(C(=O)N1CC3(CC(n4cnc(C5CC5)n4)C3)C1)C2` [Example 95, [6-(3-cyclopropyl-1,2,4-triazol-1-yl)-2-azaspiro[3.3]heptan-2-yl]-[6-[[3-(difluoromethyl)-5-methyl-pyrazol-1-yl]methyl]-2-azaspiro[3.3]heptan-2-yl]methanone] had a half-inhibitory concentration (IC50) of 0.2 nM.
The same measure for `Cc1cc(C(F)F)nn1CC1CC2(C1)CN(C(=O)N1CC3(CC(n4cnc(C5(O)CC5)n4)C3)C1)C2` [Example 96, [6-[[3-(difluoromethyl)-5-methyl-pyrazol-1-yl]methyl]-2-azaspiro[3.3]heptan-2-yl]-[6-[3-(1-hydroxycyclopropyl)-1,2,4-triazol-1-yl]-2-azaspiro[3.3]heptan-2-yl]methanone]: 3.05 nM.
As for `CC(C)(C)c1coc(CN2CC3(C2)CN(C(=O)N2CC4(CC(n5cnc(C(F)(F)F)n5)C4)C2)C3)n1` [Example 97, [6-[(4-tert-butyloxazol-2-yl)methyl]-2,6-diazaspiro[3.3]heptan-2-yl]-[6-[3-(trifluoromethyl)-1,2,4-triazol-1-yl]-2-azaspiro[3.3]heptan-2-yl]methanone], the figure is 4.12 nM; as for `CC(C)(C)c1coc(CN2CC3(C2)CN(C(=O)N2CC4(CC(n5cnc(C6CC6)n5)C4)C2)C3)n1` [Example 98, [6-[(4-tert-butyloxazol-2-yl)methyl]-2,6-diazaspiro[3.3]heptan-2-yl]-[6-(3-cyclopropyl-1,2,4-triazol-1-yl)-2-azaspiro[3.3]heptan-2-yl]methanone], 0.96 nM.
`O=C(N1CC2(CC(n3cnc(C(F)(F)F)n3)C2)C1)N1CC2(CN(Cc3ccn(CC(F)(F)F)n3)C2)C1` [Example 99, [6-[[1-(2,2,2-trifluoroethyl)pyrazol-3-yl]methyl]-2,6-diazaspiro[3.3]heptan-2-yl]-[6-[3-(trifluoromethyl)-1,2,4-triazol-1-yl]-2-azaspiro[3.3]heptan-2-yl]methanone]: the 50% inhibitory concentration (IC50) amounted to 386 nM.
In the case of `O=C(N1CC2(CC(n3cnc(C4CC4)n3)C2)C1)N1CC2(CN(Cc3ccn(CC(F)(F)F)n3)C2)C1` [Example 100, [6-(3-cyclopropyl-1,2,4-triazol-1-yl)-2-azaspiro[3.3]heptan-2-yl]-[6-[[1-(2,2,2-trifluoroethyl)pyrazol-3-yl]methyl]-2,6-diazaspiro[3.3]heptan-2-yl]methanone], the IC50 turned out to be 92.6 nM.
`O=C(N1CC2(CC(Cc3n[nH]c(C4(C(F)(F)F)CC4)n3)C2)C1)N1CC2(CC(n3cnc(C(F)(F)F)n3)C2)C1` [Example 101, [6-[[5-[1-(trifluoromethyl)cyclopropyl]-1H-1,2,4-triazol-3-yl]methyl]-2-azaspiro[3.3]heptan-2-yl]-[6-[3-(trifluoromethyl)-1,2,4-triazol-1-yl]-2-azaspiro[3.3]heptan-2-yl]methanone] had an IC50 of 0.89 nM.
As for `O=C(N1CC2(CC(Cc3n[nH]c(C4(C(F)(F)F)CC4)n3)C2)C1)N1CC2(CC(n3cnc(C4CC4)n3)C2)C1` [Example 102, [6-(3-cyclopropyl-1,2,4-triazol-1-yl)-2-azaspiro[3.3]heptan-2-yl]-[6-[[5-[1-(trifluoromethyl)cyclopropyl]-1H-1,2,4-triazol-3-yl]methyl]-2-azaspiro[3.3]heptan-2-yl]methanone], the figure is 0.58 nM.

These data come from patent US20260374756A1, “HETEROCYCLIC COMPOUNDS AS INHIBITORS OF MONOACYLGLYCEROL LIPASE (MAGL)” (Hoffmann-La Roche Inc., priority 2022, published 2026).
